From patent US4137420A, “Cysteine derivatives” (Santen Pharmaceutical Co., Ltd., priority 1976, dated 1979) come the findings set out here.

Each structure is given as a SMILES string.

One series has as its system mucin. Nature of the series: In vitro determination of the reduction in viscosity of mucin. As to conditions: 10 mM; 1% mucin, pH 8.0, 1 hour at 37° C; mean ± S.E. of 3 to 5 experiments. How it is done:
Mucolytic activity is evaluated by determining the reduction in viscosity of egg white or mucin in vitro. L-Cysteine ethyl ester hydrochloride, L-cysteine methyl ester hydrochloride and acetyl-L-cysteine are used as test compounds for comparison.
(2) In vitro determination of the reduction in viscosity of mucin
According to the method presented by Sheffner et al. (Ann, N.Y. Acad. Sci., Vol. 106, P 298-310, 1963), bacteriological mucin (Nakarai Chemical Co., Ltd.) is dissolved in Sorensen's phosphate buffer (pH =8.0) and a 1% mucin solution is prepared. 0.9ml portions of the solution are put into test tubes and test compounds (prepared in the same manner as in (1) previously described, except that the buffer solution is used for control) are added to them in a concentration 10mM. The mixture is then shaken for 1 hour at 37° C. The viscosity of the resulting solution is determined by Ostwald viscosimeter. Results shown in Table 1 are percent reduction in relative viscosity at 10mM of the test compounds used.

The nature of series [1]: In vitro determination of the reduction in viscosity of egg white. As to conditions: 20 minutes at 37° C, mean ± S.E. of 3 to 5 experiments. Here is the method: Mucolytic activity is evaluated by determining the reduction in viscosity of egg white or mucin in vitro. L-Cysteine ethyl ester hydrochloride, L-cysteine methyl ester hydrochloride and acetyl-L-cysteine are used as test compounds for comparison. (1) In vitro determination of the reduction in viscosity of egg white Egg white, which is pooled in sufficient quantity to supply material for all the determinations, is gently blended in a mixer for 5 minutes. 9ml portions of this material are put into a 50-ml beaker and the test solution in a volume of 1ml containing various concentrations of test compound (test compound is dissolved in distilled water and the solution is adjusted to pH 8.0 with 1 N sodium hydroxide, while distilled water is used as a control) is added. The mixture is then shaken for 20 minutes at 37° C. Viscosity of the resulting solution is determined by an Ostwald viscosimeter. Results shown in Table 1 are percent reduction in relative viscosity at various concentrations of the test compound used.

Series [2] is described as follows: Changes in the mucolytic activity of the test compounds treated with rabbit serum (viscosity of egg white). To be noted: for Reduction in the mucolytic activity (%): 1.0 mM, rabbit serum treated vs untreated; for Percent reduction in relative viscosity of egg white, treated with rabbit serum / Percent reduction in relative viscosity of egg white, untreated with rabbit serum: final concentration 1.0 mM, mean ± S.E. of 3 to 5 experiments; for Percent reduction in relative viscosity of egg white, treated with rabbit serum: after 30 minutes at 37° C with rabbit serum; for Percent reduction in relative viscosity of egg white, untreated with rabbit serum: without rabbit serum. How it is done: (3) Changes in the mucolytic activity of the test compounds treated with rabbit serum.
0.1ml of test compound (prepared in the same manner as (1) previously described) and 0.9ml of rabbit serum are put into a 50-ml beaker and the resulting mixture is shaken for 30 minutes at 37° C. 9ml of egg white is then added it and it is shaken for another 20 minutes. The viscosity of the resulting solution is determined by an Ostwald viscosimeter. Results shown in Table 2 are percent reduction in the relative viscosity of egg white at 1mM of the test compounds after treatment with or without rabbit serum.

A further series can be described thus: in vivo. To be noted: mouse, ip. How it is done: 5-week-old male mice of ddy strain (body weight 24-28g) are used. […] Test solution
Test compound is added to physiological saline and the resulting solution is neutralized with sodium hydroxide to form a 5% solution (pH 7.0).
After administration of test solution, general symptoms and deaths which are caused during seven days are observed. The LD50 values are calculated according to the method of Litchfield and Wilcoxon.

As for `CC(S)C(=O)N[C@@H](CS)C(=O)O` (single isomer, unassigned) [N-(2-mercaptopropionyl)-L-cysteine-B], the “Percent reduction in relative viscosity, mucin” value with mucin is 20.1 ± 0.4%. Moreover, in series [1] (final concentration 0.1 mM), the “Percent reduction in relative viscosity, egg white” value stood at 24.9 ± 1.4%. For the same molecule, the “Percent reduction in relative viscosity, egg white” value in series [1] (final concentration 10.0 mM) stood at 57.7 ± 1.0%. In series [2], the “Reduction in the mucolytic activity (%)” value worked out at 18.8%; the “Percent reduction in relative viscosity of egg white, treated with rabbit serum” value is 31.1 ± 3.8%; the “Percent reduction in relative viscosity of egg white, untreated with rabbit serum” value was 38.1 ± 2.6%.
Turning to `CC(=O)N[C@@H](CS)C(=O)O` [N-acetyl-L-cysteine, acetyl-L-cysteine, reference compound], the “Percent reduction in relative viscosity, mucin” value in the series with mucin is listed as 4.8 ± 2.5%. Besides, the “Percent reduction in relative viscosity, egg white” value in series [1] (final concentration 0.1 mM) stood at 11.0 ± 2.6%. In addition, the “Percent reduction in relative viscosity, egg white” value in series [1] (final concentration 10.0 mM) is given as 49.0 ± 1.8%. Besides, in series [2], the “Reduction in the mucolytic activity (%)” value is 37.3%; the “Percent reduction in relative viscosity of egg white, treated with rabbit serum” value came to 18.5 ± 0.8%; the “Percent reduction in relative viscosity of egg white, untreated with rabbit serum” value turned out to be 29.5 ± 2.5%.
Take `O=C(CS)N[C@@H](CS)C(=O)O` [N-mercaptoacetyl-L-cysteine]: the “Percent reduction in relative viscosity, mucin” value with mucin came to 31.8 ± 1.5%. Further, the “Percent reduction in relative viscosity, egg white” value in series [1] (final concentration 0.1 mM) is listed as 26.1 ± 4.1%. For the same molecule, the “Percent reduction in relative viscosity, egg white” value in series [1] (final concentration 10.0 mM) is on record as 60.0 ± 4.4%. In addition, in series [2], the “Reduction in the mucolytic activity (%)” value was 9.8%; the “Percent reduction in relative viscosity of egg white, treated with rabbit serum” value is listed as 35.9 ± 0.3%; the “Percent reduction in relative viscosity of egg white, untreated with rabbit serum” value turned out to be 39.8 ± 3.0%.
For `CC(C)(S)C(=O)N[C@@H](CS)C(=O)O` [N-(2-mercaptoisobutyryl)-L-cysteine], the “Percent reduction in relative viscosity, mucin” value in the series on mucin is reported as 22.5 ± 1.5%. Further, the “Percent reduction in relative viscosity, egg white” value in series [1] (final concentration 0.1 mM) is 23.1 ± 1.4%. For the same molecule, the “Percent reduction in relative viscosity, egg white” value in series [1] (final concentration 10.0 mM) was found to be 57.0 ± 1.0%. Moreover, in series [2], the “Reduction in the mucolytic activity (%)” value came to 14.1%; the “Percent reduction in relative viscosity of egg white, treated with rabbit serum” value came to 32.9 ± 1.0%; the “Percent reduction in relative viscosity of egg white, untreated with rabbit serum” value was determined as 38.3 ± 2.2%.
As to `O=C(CCS)N[C@@H](CS)C(=O)O` [N-(3-mercaptopropionyl)-L-cysteine], the “Percent reduction in relative viscosity, mucin” value with mucin is recorded as 28.1 ± 0.5%. In addition, the “Percent reduction in relative viscosity, egg white” value in series [1] (final concentration 0.1 mM) is recorded as 22.8 ± 0.1%. For the same molecule, the “Percent reduction in relative viscosity, egg white” value in series [1] (final concentration 10.0 mM) turned out to be 54.5 ± 4.7%. In addition, in series [2], the “Reduction in the mucolytic activity (%)” value was -5.4%; the “Percent reduction in relative viscosity of egg white, treated with rabbit serum” value was determined as 38.7 ± 2.6%; the “Percent reduction in relative viscosity of egg white, untreated with rabbit serum” value is 36.7 ± 1.6%.
For orientation: LD50 means the dose expected to kill half of the subjects tested. Read a low LD50 as greater toxicity. In the series “in vivo”, `CC(S)C(=O)N[C@@H](CS)C(=O)O` (single isomer, unassigned) [N-(2-mercaptopropionyl)-L-cysteine-A] gave a 50% lethal dose (LD50) at 168 h of 2090 mg/kg. Besides, the “Percent reduction in relative viscosity, mucin” value in the series on mucin is reported as 26.6 ± 1.5%. Besides, the “Percent reduction in relative viscosity, egg white” value in series [1] (final concentration 0.1 mM) was determined as 24.9 ± 1.5%. In series [1] (final concentration 10.0 mM), the “Percent reduction in relative viscosity, egg white” value came to 56.4 ± 1.6%. For the same molecule, in series [2], the “Reduction in the mucolytic activity (%)” value came to 27.2%; the “Percent reduction in relative viscosity of egg white, treated with rabbit serum” value came to 30.0 ± 1.0%; the “Percent reduction in relative viscosity of egg white, untreated with rabbit serum” value was found to be 41.2 ± 2.1%.
Take `COC(=O)[C@@H](N)CS.Cl` [L-cysteine methyl ester hydrochloride, reference compound]: in the series with mucin, the “Percent reduction in relative viscosity, mucin” value turned out to be 17.8 ± 0.2%. Further, the “Percent reduction in relative viscosity, egg white” value in series [1] (final concentration 0.1 mM) is recorded as 31.1 ± 5.6%. Further, the “Percent reduction in relative viscosity, egg white” value in series [1] (final concentration 10.0 mM) amounted to 60.6 ± 2.4%. Also, in series [2], the “Reduction in the mucolytic activity (%)” value came out at 84.6%; the “Percent reduction in relative viscosity of egg white, treated with rabbit serum” value is recorded as 7.0 ± 1.2%; the “Percent reduction in relative viscosity of egg white, untreated with rabbit serum” value was 45.5 ± 2.0%.
Turning to `CCOC(=O)[C@@H](N)CS.Cl` [L-cysteine ethyl ester hydrochloride, L-Cysteine ethyl ester hydrochloride, reference compound], in the series with mucin, the “Percent reduction in relative viscosity, mucin” value is reported as 19.7 ± 1.5%. In addition, in series [1] (final concentration 0.1 mM), the “Percent reduction in relative viscosity, egg white” value came to 25.1 ± 3.5%. Further, the “Percent reduction in relative viscosity, egg white” value in series [1] (final concentration 10.0 mM) was 59.9 ± 1.2%. Also, in series [2], the “Reduction in the mucolytic activity (%)” value is 63.3%; the “Percent reduction in relative viscosity of egg white, treated with rabbit serum” value was 15.4 ± 1.8%; the “Percent reduction in relative viscosity of egg white, untreated with rabbit serum” value worked out at 42.0 ± 1.1%.
